Assay results from patent publication US6528494B2 (priority 1996, dated 2003).

Tests used:
[1] = tested on: lung eosinophil accumulation; assay: Antigen-induced lung eosinophil accumulation in sensitised guinea pigs; assay type: in vivo, guinea pig; conditions: airstream concentration; inhaled route, 30 min aerosol before ovalbumin challenge; lavage 24 h after challenge
Description: (2) Antigen-induced lung eosinophil accumulation in sensitised guinea pigs.
Ovalbumin sensitised guinea pigs were dosed with mepyramine (1 mg/kg ip) to protect against anaphylactic bronchospasm. A compound of the invention was then given by the inhaled route (30 min breathing of an aerosol of the compound) immediately prior to ovalbumin challenge (30 min breathing of an aerosol generated from a 50 ug/ml solution of ovalbumin). Twenty four hours after challenge, the guinea pigs were killed and the lungs lavaged. Total and differential leucocyte counts were then obtained for the bronchoalveolar lavage fluid and the dose of test compound giving a 50% reduction in eosinophil accumulation (ED50) was determined (Sanjar et al. 1992).

adenosine 2a receptor = adenosine 2a receptor (Homo sapiens, UniProt P29274); assay: Agonist activity against adenosine 2a receptor (CHO cells, cAMP/SPAP reporter); assay type: cell-based; conditions: CHO cells transfected with human receptor; basal cAMP via SPAP; mean of all the versions tested
Description: (§1) (1) Agonist activity against adenosine 2a, adenosine 1 and adenosine 3 receptor subtypes.
(§2) The effect of test compounds was determined by their effects on basal levels of cAMP (A2a) or on forskolin-enhanced cAMP (A1 and A3) as reflected by changes in levels of SPAP.

adenosine 3 receptor = target: T1, adenosine 3 receptor (Homo sapiens, UniProt P0DMS8); assay: Agonist activity against adenosine 3 receptor (CHO cells, forskolin-enhanced cAMP/SPAP reporter); assay type: cell-based; conditions: CHO cells transfected with human receptor; forskolin-enhanced cAMP via SPAP; mean of all the versions tested
T1 sequence (P0DMS8 1-318): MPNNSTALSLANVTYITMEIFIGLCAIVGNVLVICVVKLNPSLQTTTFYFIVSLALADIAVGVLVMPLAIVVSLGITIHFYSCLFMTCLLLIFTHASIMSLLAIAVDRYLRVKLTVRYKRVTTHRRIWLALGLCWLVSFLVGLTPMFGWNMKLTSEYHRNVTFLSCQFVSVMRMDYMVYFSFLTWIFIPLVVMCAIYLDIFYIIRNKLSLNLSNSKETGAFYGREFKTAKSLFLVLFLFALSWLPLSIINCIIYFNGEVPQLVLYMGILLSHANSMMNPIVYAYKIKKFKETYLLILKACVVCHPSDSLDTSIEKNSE
Description: as §1, §2

adenosine 1 receptor = target: T2, adenosine 1 receptor (Homo sapiens, UniProt P30542); assay: Agonist activity against adenosine 1 receptor (CHO cells, forskolin-enhanced cAMP/SPAP reporter); assay type: cell-based; conditions: CHO cells transfected with human receptor; forskolin-enhanced cAMP via SPAP; mean of all the versions tested
T2 sequence (P30542 1-326): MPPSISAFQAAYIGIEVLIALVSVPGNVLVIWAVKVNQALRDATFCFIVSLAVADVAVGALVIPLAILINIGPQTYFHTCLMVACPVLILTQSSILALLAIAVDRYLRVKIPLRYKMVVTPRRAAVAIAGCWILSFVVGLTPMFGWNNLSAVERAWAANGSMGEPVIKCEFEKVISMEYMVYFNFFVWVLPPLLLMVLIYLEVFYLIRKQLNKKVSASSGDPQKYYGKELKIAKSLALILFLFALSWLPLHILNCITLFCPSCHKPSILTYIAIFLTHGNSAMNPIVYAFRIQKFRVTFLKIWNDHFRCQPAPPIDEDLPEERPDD
Description: as §1, §2

adenosine 2a receptor, sequence (P29274 whole entry): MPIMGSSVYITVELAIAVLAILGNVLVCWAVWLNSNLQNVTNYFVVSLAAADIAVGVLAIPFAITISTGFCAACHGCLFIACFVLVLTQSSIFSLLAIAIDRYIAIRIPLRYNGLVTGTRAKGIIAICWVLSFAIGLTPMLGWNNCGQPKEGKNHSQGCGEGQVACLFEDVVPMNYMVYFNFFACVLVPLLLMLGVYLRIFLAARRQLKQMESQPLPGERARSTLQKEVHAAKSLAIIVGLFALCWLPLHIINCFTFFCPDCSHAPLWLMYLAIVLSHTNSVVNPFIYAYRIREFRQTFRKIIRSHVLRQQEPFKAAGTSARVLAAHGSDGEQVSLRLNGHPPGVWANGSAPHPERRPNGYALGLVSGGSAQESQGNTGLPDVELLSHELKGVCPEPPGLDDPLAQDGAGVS

SMILES	ED50 (50% reduction in eosinophil accumulation) [1]	A2a EC50 as a ratio of that of NECA (adenosine 2a receptor)	A3 EC50 as a ratio of that of NECA (adenosine 3 receptor)	A1 EC50 as a ratio of that of NECA (adenosine 1 receptor)
CCn1nnc([C@H]2O[C@@H](n3cnc4c(NCC(c5ccccc5)c5ccccc5)nc(N[C@H]5CC[C@H](N)CC5)nc43)[C@H](O)[C@@H]2O)n1.Cl.Cl (relative stereo) [Example 1a, rel-(2R,3R,4S,5R)-2-[2-(trans-4-Amino-cyclohexylamino)-6-(2,2-diphenyl-ethylamino)-purin-9-yl]-5-(2-ethyl-2H-tetrazol-5-yl)-tetrahydro-furan-3,4-diol Dihydrochloride]	6 ng/mL	–	–	–
CCn1nnc([C@H]2O[C@@H](n3cnc4c(N)nc(N[C@H](CO)Cc5ccccc5)nc43)[C@H](O)[C@@H]2O)n1.Cl [Example 11a, (2R,3R,4S,5R)-2-[6-Amino-2-(1S-hydroxymethyl-2-phenyl-ethylamino)-purin-9-yl]-5-(2-ethyl-2H-tetrazol-5-yl)-tetrahydro-furan-3,4-diol Hydrochloride]	6 ng/mL	–	–	–
CCn1nnc([C@H]2O[C@@H](n3cnc4c(NCC(c5ccccc5)c5ccccc5)nc(NCCO)nc43)[C@H](O)[C@@H]2O)n1.O=C(O)C(F)(F)F [Example 47, (2R,3R,4S,5R)-2-[6-(2,2-Diphenyl-ethylamino)-2-(2-hydroxy-ethylamino)-purin-9-yl]-5-(2-ethyl-2H-tetrazol-5-yl)-tetrahydro-furan-3,4-diol Trifluoroacetate]	–	1.06	>216	27.40
CCn1nnc([C@H]2O[C@@H](n3cnc4c(NCC(c5ccccc5)c5ccccc5)nc(NC5CCS(=O)(=O)CC5)nc43)[C@H](O)[C@@H]2O)n1.O=C(O)C(F)(F)F [Example 115, (2R,3R,4S,5R)-2-[6-(2,2-Diphenyl-ethylamino)-2-(1,1--dioxo-hexahydro-1.lamda.6-thiopyran-4-ylamino)-purin-9-yl]-5-(2-ethyl-2H-tetrazol-5-yl)-tetrahydro-furan-3,4-diol Trifluoroacetate]	–	0.36	>297.0	37.7
CCn1nnc([C@H]2O[C@@H](n3cnc4c(NCC(c5ccccc5)c5ccccc5)nc(NCCN5CCCCC5)nc43)[C@H](O)[C@@H]2O)n1.O=C(O)C(F)(F)F.O=C(O)C(F)(F)F [Example 46]	–	1.37	>216	64.00
CC(=O)O.CC(=O)O.CCn1nnc(C2OC(n3cnc4c(NCCN5CCOCC5)nc(NCCc5cn(C)cn5)nc43)C(O)C2O)n1 [Example 50, (2R,3S,4R,5R)-2-(2-Ethyl-2H-tetrazol-5-yl)-5-[2-[2-(1-methyl-1H-imidazol-4-yl)-ethylamino]-6-(2-morpholin-4-yl-ethylamino)-purin-9-yl]-tetrahydro-furan-3,4-diol Diacetate]	–	1.48	>86	2443.00
CCn1nnc([C@H]2O[C@@H](n3cnc4c(N)nc(N[C@H]5CC[C@H](N)CC5)nc43)[C@H](O)[C@@H]2O)n1 [Example 53, (2R,3R,4S,5R)-2-[6-Amino-2-(trans-4-amino-cyclohexylamino)-purin-9-yl]-5-(2-ethyl-2H-tetrazol-5-yl)-tetrahydro-furan-3,4-diol]	–	4.14	>960	298.30
